This is an account of results in PMC9756341 (Journal of the American Chemical Society, 2022).

Experiment [1] deals with KLK6. Briefly: Enzyme kinetics to calculate KM, KLK6. The experiment is classed as biochemical, human. To be noted: fluorogenic substrate, KLK6 1.5 nM, 2% DMSO, room temperature, 30 min, Michaelis-Menten model, triplicates. Here is the method:
Reagents were obtained from VWR, Sigma Aldrich, Sartorius, Fluorochem, AGTC, Novabiochem, TCI, Alfa Aesar, Iris Biotech, Thermofisher and Bachem. […]
(Code 7449-SE) and KLK8 (Code 2025-SE) were obtained from BioTechne. KLK6 was obtained from the group of Aubry Miller (DKFZ) and KLK7 was obtained from the group of Judith Clements (QUT).
The manufacturer’s recommended buffers were used with uPA and tPA but not KLK8. The KLK6 assay buffer was as follows: 50 mM Tris 150 mM NaCl, 1 mM EDTA, 0.05% Tween20, pH 7.5. The KLK7/8 buffer was as follows: 100 mM Na2PO4, 0.01% Tween20, pH 8.5. Fluorescence measurements were measured using an Envision plate reader. Fluorescence data was processed using Graphpad Prism 8. […]
2-chlorotrityl chloride resin. […]
380nm/440nm. The data was analysed using Graphpad Prism 8. The initial slopes of each plot were calculated and presented in a bar chart, which represents the substrate specificity of the KLK. […]
Enzyme kinetics to calculate KM. Purified fluorogenic substrates were measured in triplicates. […]
temperature, fluorescence was read once every 30 s for 30 min from an Envision plate reader at excitation/emission wavelengths of 380nm/440nm. The data was analysed with Graphpad Prism 8, using the Michaelis-Menten model.
Enzyme kinetics to calculate kobs/I. All ABPs and inhibitors were measured in triplicates. […]

In experiment [2] the test system is KLK6. Briefly: Enzyme kinetics to calculate kobs/I, KLK6. To be noted: KLK6 1.5 nM, fluorogenic substrate 22 5 µM, 50 mM Tris 150 mM NaCl 1 mM EDTA 0.05% Tween20 pH 7.5, room temperature, read every 30 s for 30 min, ex/em 380/440 nm, pseudo first order kinetics, corrected by (1 + [S]/KM), triplicates. The experiment is classed as biochemical, human.
The target of another experiment is T1, KLK8 (Homo sapiens, UniProt O60259).
T1 construct: Active recombinant FGFBP1 (Code 1593-FB), HSPG2 (Code 2364-ER), uPA (Code 1310-SE), tPA (Code 7449-SE) and KLK8 (Code 2025-SE) were obtained from BioTechne; purchased BioTechne 2025-SE
T1 sequence (O60259 33-260): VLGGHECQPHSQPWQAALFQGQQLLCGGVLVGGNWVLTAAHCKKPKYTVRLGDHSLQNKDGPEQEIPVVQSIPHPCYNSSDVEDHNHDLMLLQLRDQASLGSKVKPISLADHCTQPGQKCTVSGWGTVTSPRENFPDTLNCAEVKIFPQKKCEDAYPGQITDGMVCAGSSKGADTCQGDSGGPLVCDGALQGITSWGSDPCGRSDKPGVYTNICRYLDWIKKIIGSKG
Briefly: Enzyme kinetics to calculate kobs/I, KLK8. The conditions noted are these: KLK8 1 nM, Boc-VPR-AMC 30 µM, 100 mM Na2PO4 0.01% Tween20 pH 8.5, room temperature, 30 min, pseudo first order kinetics, triplicates. It counts as biochemical.

Experiment [3] relates to Capan-2 cells. The conditions noted are these: 0.13 to 2 μM, Incucyte live cell imaging every 4 h for 5 days, serum-free DMEM.
Description: Incucyte assays for proliferation and toxicity
Proliferation was quantified using the Incucyte software by measuring percentage confluency. Sytox
green was used as a marker for cell death. Cell death was quantified by measuring total green
fluorescence of each well.
Incucyte (proliferation and toxicity) assays. Capan-2 cells were seeded in a sterile 96 well plate
(10,000 cells per well). The outermost wells were left empty to mitigate edge effects. Cells were grown
in growth media (10% FBS) overnight to adhere. The next day, the media was replaced with serum-free
DMEM (117 µL) containing Sytox green (250 nM) or a DMSO control.
The subject of the next experiment is endogenous active KLK6. The conditions noted are these: Capan-2 conditioned media, streptavidin pulldown, KLK6 western blot. Background: A western blot detects proteins with antibodies after separation by electrophoresis.
Experiment [4] relates to Capan-2 cells. To be noted: Capan-2 cells (active KLK6), 2 μM, 24 h, relative to DMSO. Here is the method: (§1) Next, the effect of KLK6 inhibition on migration and invasion of Capan-2 cells was assessed using a Boyden chamber assay.
(§2) (13 µL per condition). Control conditions included puromycin (100 µg/mL), DMSO only, Sytox green only or DMSO + Sytox green. The final inhibitor concentrations ranged from 2 µM to 125 nM. The cells were placed into an Incucyte with the incubator set at 37 °C and 5% CO2. Phase and green fluorescence were analysed every 4 h for 5 days.
(§3) Invasion/migration assays. Cell invasion was measured using Corning Fluoroblok inserts following a modified procedure11. Fluoroblok inserts were placed into the wells of a 24-well plate. Matrigel was suspended to 300 µg/mL in coating buffer (0.01M Tris, 0.7% NaCl, pH 8). The matrigel suspension (100 µL) was added into the Fluoroblok insert and the plate was left at 37 °C for 2 h. A migration control (with no matrigel) was also included. Cells were trypsinised and resuspended in serum-free DMEM.
(§4) The leftover buffer in the chambers was decanted and 500 µL of cells (100,000 per well) were seeded into the apical chamber of the insert. DMEM with 10% FBS (750 µL) was added into the basal chamber as a chemoattractant. The plate was incubated at 37 °C and 5% CO2 for 24 h. The chambers were removed and placed into a new 24-well plate containing 50 µM of CellTracker CMHC dye in HBSS. The cells were stained for 0.5 h and the chamber was removed and placed into the previous plate containing DMEM with 10% FBS. The cells were imaged for blue fluorescence (ex/em = 375/460) using a Celena S inverted fluorescence microscope. Percentage invasion was calculated by quantifying the cell area

For another experiment, the system named is BxPC-3 cells. The conditions noted are these: BxPC-3 cells (no active KLK6), 2 μM, 24 h, relative to DMSO. How it is done:
as §1, §2, §3, §4

[5] abbreviates: Fluoroblok insert without Matrigel.
Setting [6] is: Matrigel-coated Fluoroblok insert.

Description for endogenous active KLK6: Conditioned media was incubated with bABP 17 (10 μM) or DMSO for 2 h, and labeled proteins enriched on magnetic streptavidin-loaded beads, eluted, and analyzed by western blot against a KLK6 antibody.
Cell culture. Cells were cultured in their recommended culture media supplemented with 10% (v/v)
foetal bovine serum at 37 °C and 5% CO2.
Preparation of conditioned media. Cells were grown in standard growth media to 80% confluency in
a T175 flask. The medium was removed, and the cells were washed with serum-free, phenol-red free
RPMI. The cells were incubated with the same RPMI for 2 h. The medium was replaced once again
with serum-free, phenol-red free RPMI and the cells were incubated for 48 h. The condition medium
was collected and filtered through a 0.2 µm syringe filter. The medium was concentrated (25 mL to
0.75 mL) using a 3 kDa Mw cutoff spin filter to a final concentration of around 1 mg/mL. The protein
concentration was measured using a BioRad DCTM protein assay.
Pulldown experiments (western blot). Conditioned media was diluted with PBS to exactly 1 mg/mL.
200 µg of total protein was used per condition. The ABP or DMSO was added at a 1:100 dilution and
the samples were shaken at RT for 1 h. The proteins were precipitated using the MeOH/H2O/CHCl3
method. The pellet was washed twice with MeOH and dried in air for 5 min. The protein was
resuspended in 2% SDS in PBS to a concentration of 10 mg/mL. PBS was added to gradually dilute
the protein back to 1 mg/mL and the samples were centrifuged (17,000 g, 5 min). 5 µg of protein was
set aside as the “before pulldown” samples. Magnetic streptavidin beads were washed three times with
PBS. The rest of the protein was added into the beads and shaken at RT for 2 h. 5 µg of the supernatant
was set aside for analysis, while the rest was discarded. The beads were washed three times with 1%
SDS in PBS. […]
were boiled at 95 °C for 5 min. The proteins were analysed via SDS-PAGE and western blot analysis. […]
10 min, followed by 180 V for 60 min. Gels were then taken for western blot or in-gel fluorescence. […]

Turning to “Ac-DPhe-Ser(Z)-Dht-Arg-ACC [compound 23, purified fluorogenic substrate for KLK6]”, the Km (usually the substrate concentration at which the rate is half of its maximum) with KLK6 [1] was 180 µM.

On to “Ac-Thr(Z)-Ala-Phg-Arg-ACC [compound 22, purified fluorogenic substrate for KLK6]”, for which the Km in the experiment with KLK6 [1] was 86 µM.

As for “Yn–Asp(Chx)–Cha–His(Z)–Phg(4-guan)PP [compound 4]”, the “KLK6 kobs/I” value with KLK6 [2] is recorded as 54 M^–1 s^–1. For the substance Yn–DPhe–Ser(Z)–Dht–DArgPP [compound 20], the “KLK6 kobs/I” value in the experiment with KLK6 [2] is 0 M^–1 s^–1. Still for that read-out and setting: the figure for “Yn–Thr(Z)–Ala–Dab(Z)–Phg(4-guan)PP [compound 8]” is 11 M^–1 s^–1. Same read-out and setting: the figure for “Yn–Thr(Z)–Ala–Dht–Phg(4-guan)PP [compound 5]” is 250 M^–1 s^–1.

For the substance “Yn–Thr(Z)–Ala–Phg–Phg(4-guan)PP [compound 1]”, the “KLK6 kobs/I” value with KLK6 [2] is listed as 220 M^–1 s^–1. Still for that read-out and setting: the figure for “Yn–Thr(Z)–Ala–Ser(Z)–Phg(4-guan)PP [compound 7]” is 43 M^–1 s^–1; for “Yn–Thr(Z)–Ala–Tyr(Z)–Phg(4-guan)PP [compound 6]” it is 7 M^–1 s^–1; for “Yn–Thr(Z)–Cha–His(Z)–Phg(4-guan)PP [compound 3]” it is 46 M^–1 s^–1. On to “Yn–Thr(Z)–Chg–His(Z)–Phg(4-guan)PP [compound 2]”, for which the “KLK6 kobs/I” value in the experiment with KLK6 [2] was 30 M^–1 s^–1.

On to “biotin–Ahx–DPhe–Cha–Dht–ArgPP [compound 16]”, for which, at KLK8, the “KLK8 kobs/I” value was 150 M^–1 s^–1. Moreover, in the experiment on KLK6 [2], the “KLK6 kobs/I” value is 1300 M^–1 s^–1. For “biotin–Ahx–DPhe–Cha–Dht–Phg(4-guanPP [compound 11]”, in that order: 0 M^–1 s^–1 and 210 M^–1 s^–1. For “biotin–Ahx–DPhe–Cha–Ser(Ac)–Phg(4-guan)PP [compound 15]”, in that order: 20 M^–1 s^–1 and 150 M^–1 s^–1. On the same counts, the results for “biotin–Ahx–DPhe–DLys–Dht–Phg(4-guan)PP [compound 14]” are 73 M^–1 s^–1 and 550 M^–1 s^–1. In the case of “biotin–Ahx–DPhe–Lys–Dht–Phg(4-guan)PP [compound 13]”, the “KLK6 kobs/I” value in the experiment with KLK6 [2] is reported as 250 M^–1 s^–1. Take “biotin–Ahx–DPhe–Ser(Z)–Dht–DArgPP [compound 18]”: the “effect on proliferation (percentage confluency)” value in the experiment on Capan-2 cells [3] was “no effect”. Further, in the experiment with KLK6 [2], the “KLK6 kobs/I” value is 0 M^–1 s^–1. Besides, the “labeling of endogenous KLK6” value in the experiment with endogenous active KLK6 is given as “no KLK6 labeling”. The effect on migration entry with Capan-2 cells [4] (setting [5]) and in the experiment on BxPC-3 cells (setting [5]) was “no effect” each time. The effect on invasion result in the experiment on Capan-2 cells [4] (setting [6]) and in the experiment with BxPC-3 cells (setting [6]) was “no effect” in each case.

For the substance “biotin–Ahx–DhPhe–Cha–Dht–Phg(4-guan)PP [compound 12]”, at KLK8, the “KLK8 kobs/I” value is given as 0 M^–1 s^–1. Further, in the experiment with KLK6 [2], the “KLK6 kobs/I” value is recorded as 140 M^–1 s^–1. On to “biotin–Ahx–Thr(Z)–Ala–Dht–Phg(4-guan)PP [compound 9]”, for which the “KLK6 kobs/I” value with KLK6 [2] was 220 M^–1 s^–1. With “biotin–Ahx–Thr(Z)–Cha–Dht–Phg(4-guan)PP [compound 10]”, the “KLK8 kobs/I” value at KLK8 was 71 M^–1 s^–1. In addition, in the experiment on KLK6 [2], the “KLK6 kobs/I” value is recorded as 420 M^–1 s^–1.
